# Assay results taken from ChEMBL document CHEMBL1125116 (J Med Chem, 1990).
# Biological target: D(2) dopamine receptor (Rattus norvegicus, UniProt P61169)
# Test: Evaluated in vitro for the affinity towards Dopamine receptor D2 of rat striatal tissue
# D(2) dopamine receptor, sequence (P61169 whole entry): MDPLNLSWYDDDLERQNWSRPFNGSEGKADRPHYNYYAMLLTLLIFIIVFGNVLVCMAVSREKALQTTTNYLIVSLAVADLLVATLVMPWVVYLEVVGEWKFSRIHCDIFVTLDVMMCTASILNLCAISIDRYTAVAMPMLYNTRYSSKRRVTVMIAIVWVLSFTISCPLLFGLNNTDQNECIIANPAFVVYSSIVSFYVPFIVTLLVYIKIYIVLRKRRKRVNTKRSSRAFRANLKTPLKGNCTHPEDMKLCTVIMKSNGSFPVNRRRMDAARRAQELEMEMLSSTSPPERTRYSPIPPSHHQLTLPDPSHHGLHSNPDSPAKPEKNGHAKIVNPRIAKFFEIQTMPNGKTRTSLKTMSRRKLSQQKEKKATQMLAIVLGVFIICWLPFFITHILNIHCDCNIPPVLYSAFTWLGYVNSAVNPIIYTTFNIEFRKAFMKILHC
structure (smiles),measurement,value
O=C(CCCN1CCC2(CC1)C(=O)NCN2c1ccccc1)c1ccc(F)cc1I,Kd,0.25 nM
